In patent US20100010039A1, “POLYMORPHIC CRYSTAL FORM OF A INDAN-2-YLAMINO-HYDROXYETHYL-QUINOLINONE MALEATE DERIVATIVE AS BETA-ADRENOCEPTOR AGONIST” (priority 2006, published 2010):
Structures can show the parent of a compound that is named as a salt. Marks after values point to notes of the source that are not given here.

Tests used:
Type in all cases: physicochemical
[1] = Solubility behaviour / kinetic of dissolution in comparison to the amorphous part
[2] = Stress testing: 1 month, 60° C./75% RH open container (physico-chemical stability comparison); conditions: for XRPD (identity of the material), 1 month / Assay (HPLC), 1 month / Related substances (HPLC), 1 month / TG (moisture content), 1 month: after 1 month, 60° C./75% RH open; for Assay (HPLC), 1 month / Related substances (HPLC), 1 month / TG (moisture content), 1 month / Assay (HPLC), Initial / Related substances (HPLC), Initial / TG (moisture content), Initial / XRPD (identity of the material), Initial: maleate; for Assay (HPLC), Initial / Related substances (HPLC), Initial / TG (moisture content), Initial / XRPD (identity of the material), Initial: before storage, release / recontrol analysis
Method: (§1) Samples of crystal form Qalpha and amorphous (R)-5-[2-(5,6-diethyl-indan-2-ylamino)-1-hydroxyethyl]-8-hydroxy-1H-quinolin-2-one maleate are stress tested before and after storage for 1 month to provide for physico-chemical stability comparison.
(§2) In a first test the samples are stored at 60° C. in an open container with a relative humidity <30%. In a second test the samples are stored at 60° C. in an open container with a relative humidity of about 75%. The results are shown in Tables 5 and 6 below respectively.
(§3) The tests determine (a) purity and (b) assay as determined by high performance liquid chromatography (HPLC) using HP1100 from Agillent with a YMC-packs ODS-AQ 3 μm column; (c) identity of the material as determined by the X-ray diffraction pattern measured using a SCINTAG™ X-ray diffractometer with a CuK alpha radiation source (45 kV, 40 mA); and (d) moisture content determined using a TGA851e Mettler Toledo STAR System thermogravimetry analysis balance with nitrogen flow 50 ml/min.

[3] = Stress testing: 1 month, 60° C. open container, relative humidity <30% (physico-chemical stability comparison); conditions: for Assay (HPLC), 1 month / Related substances (HPLC), 1 month / TG (moisture content), 1 month / XRPD (identity of the material), 1 month: after 1 month, 60° C. open, R.H. <30%; for Assay (HPLC), 1 month / Related substances (HPLC), 1 month / TG (moisture content), 1 month / XRPD (identity of the material), 1 month / Related substances (HPLC), Initial / Assay (HPLC), Initial / TG (moisture content), Initial / XRPD (identity of the material), Initial / Proneness to degradation on storage (in words): maleate; for Related substances (HPLC), Initial / Assay (HPLC), Initial / TG (moisture content), Initial / XRPD (identity of the material), Initial: before storage; for Related substances (HPLC), Initial: Qalpha value from release analysis, Amorphous value from recontrol analysis; for Assay (HPLC), Initial / TG (moisture content), Initial / XRPD (identity of the material), Initial: release / recontrol analysis; for Proneness to degradation on storage (in words): summary of both stress tests (Tables 5 and 6), 1 month, 60° C.
Method: as §1, §2, §3

SMILES	XRPD (identity of the material), 1 month [2]	Assay (HPLC), 1 month [2]	Related substances (HPLC), 1 month [2]	TG (moisture content), 1 month [2]	Assay (HPLC), Initial [2]	Related substances (HPLC), Initial [2]	TG (moisture content), Initial [2]	XRPD (identity of the material), Initial [2]	Assay (HPLC), 1 month [3]	Related substances (HPLC), 1 month [3]	TG (moisture content), 1 month [3]	XRPD (identity of the material), 1 month [3]	Related substances (HPLC), Initial [3]	Assay (HPLC), Initial [3]	TG (moisture content), Initial [3]	XRPD (identity of the material), Initial [3]	also measured
CCc1cc2c(cc1CC)CC(NC[C@H](O)c1ccc(O)c3[nH]c(=O)ccc13)C2 [Qalpha, (R)-5-[2-(5,6-diethyl-indan-2-ylamino)-1-hydroxyethyl]-8-hydroxy-1H-quinolin-2-one maleate]	Qalpha	99.5%	0.26%	<0.05%	100.2%*	0.23%*	0.07%*	Qalpha*	98.8%	0.25%	<0.05%	Qalpha	0.23%*	100.2%*	0.07%*	Qalpha*	Solubility behaviour: kinetic of dissolution (in words) [1]: lower kinetic of dissolution; Changes after storage (in words) ([3]; storage for 1 month, both stress tests): No significant changes; Proneness to degradation on storage (in words) ([3]; listed as crystal form Qalpha): less prone to degradation or conversion than the amorphous form on storage
CCc1cc2c(cc1CC)CC(NC[C@H](O)c1ccc(O)c3[nH]c(=O)ccc13)C2 [Amorphous, (R)-5-[2-(5,6-diethyl-indan-2-ylamino)-1-hydroxyethyl]-8-hydroxy-1H-quinolin-2-one maleate, reference compound]	Qalpha	98.9%	0.73%	0.23%	99.7%#	0.22%#	1.8%#	Amorphous#	91.5%	4.3%	0.74%	Amorphous	0.22%#	99.7%#	1.8%#	Amorphous#	Conversion of solid form on storage (in words) ([2]; stored at 60° C./75% R.H.): converts to crystal form Qalpha; Proneness to degradation on storage (in words) ([3]; listed as amorphous material): more prone to degradation than Qalpha
